# Data published in US7893074B2, “2, 4-pyrimidinediamines useful in the treatment of neoplastic diseases, inflammatory and immune system disorders” (Novartis AG, priority 2003, dated 2011).
# Like-named read-outs stand apart in the source and are kept apart here.
# Key:
# [1] = target: Focal Adhesion Kinase (FAK) (Homo sapiens, UniProt Q05397); experiment: FAK assay system (Focal Adhesion Kinase inhibition); type: biochemical; settings: read-out: FAK IC50
# [2] = system: Mouse mammary carcinoma 4T1 cells; experiment: Anchorage-independent tumor cell growth assay; type: cell-based
# Protocol: Cells are cultured for 2 h and inhibitors are added at various concentrations in a final concentration of 0.1% DMSO. After 48 h, cell growth is assayed with the cell counting kit-8 (Wako Pure Chemical), which uses a water soluble tetrazolium salt WST8. Twenty μL of the reagent is added into each well and cells are further cultured for 2 h. The optical density is measured at 450 nm.
# [3] = target: FAK (Mus musculus, UniProt P34152); experiment: Phos IC50 (phosphorylation); type: cell-based
# Sequence of FAK (P34152 2-1052): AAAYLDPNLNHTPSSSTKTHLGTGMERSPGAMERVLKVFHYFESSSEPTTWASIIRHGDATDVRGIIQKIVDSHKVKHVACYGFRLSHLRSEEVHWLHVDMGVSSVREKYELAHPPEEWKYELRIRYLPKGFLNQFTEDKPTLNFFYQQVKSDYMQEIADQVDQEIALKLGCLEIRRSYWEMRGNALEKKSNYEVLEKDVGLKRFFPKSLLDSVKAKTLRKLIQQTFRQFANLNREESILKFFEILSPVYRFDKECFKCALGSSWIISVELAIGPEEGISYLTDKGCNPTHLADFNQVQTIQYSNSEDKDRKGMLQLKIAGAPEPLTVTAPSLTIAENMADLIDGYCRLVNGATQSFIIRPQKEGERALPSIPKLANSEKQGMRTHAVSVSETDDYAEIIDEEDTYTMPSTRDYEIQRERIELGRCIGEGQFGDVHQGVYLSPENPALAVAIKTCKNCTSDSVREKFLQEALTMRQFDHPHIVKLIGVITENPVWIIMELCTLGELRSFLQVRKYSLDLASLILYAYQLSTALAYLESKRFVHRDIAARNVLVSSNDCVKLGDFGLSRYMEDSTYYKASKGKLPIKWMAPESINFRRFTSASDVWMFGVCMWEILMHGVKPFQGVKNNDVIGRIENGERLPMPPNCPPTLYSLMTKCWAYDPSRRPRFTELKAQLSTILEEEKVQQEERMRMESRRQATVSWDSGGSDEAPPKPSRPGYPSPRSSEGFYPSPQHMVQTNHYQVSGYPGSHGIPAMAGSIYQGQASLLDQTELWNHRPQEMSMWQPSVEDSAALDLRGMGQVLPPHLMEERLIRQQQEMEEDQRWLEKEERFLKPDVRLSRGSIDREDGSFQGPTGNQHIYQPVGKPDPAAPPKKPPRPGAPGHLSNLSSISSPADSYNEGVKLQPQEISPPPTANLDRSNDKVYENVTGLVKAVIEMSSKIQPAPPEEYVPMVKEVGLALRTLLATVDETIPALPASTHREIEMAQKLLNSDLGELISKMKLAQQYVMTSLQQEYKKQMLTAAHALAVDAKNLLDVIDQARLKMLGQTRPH
# Sequence of Focal Adhesion Kinase (FAK) (Q05397 384-706): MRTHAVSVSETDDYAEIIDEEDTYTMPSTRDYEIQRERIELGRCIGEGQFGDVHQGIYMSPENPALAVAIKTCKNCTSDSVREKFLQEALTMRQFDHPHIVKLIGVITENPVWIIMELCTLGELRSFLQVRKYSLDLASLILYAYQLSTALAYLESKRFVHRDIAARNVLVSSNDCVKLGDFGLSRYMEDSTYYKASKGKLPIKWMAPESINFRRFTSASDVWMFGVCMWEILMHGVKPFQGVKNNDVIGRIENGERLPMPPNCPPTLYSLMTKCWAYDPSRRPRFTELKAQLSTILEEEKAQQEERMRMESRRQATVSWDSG
SMILES,IC50 [1] [nM],"IC50 ([2]; Mus musculus, 4T1) [nM]",IC50 [3] [nM],IC50 [2] [nM]
CNC(=O)c1ccccc1Nc1nc(Nc2ccc(N3CCC(OCCOC)CC3)cc2OC)ncc1Cl [Example 7-10],6.6,980,1000,
CNC(=O)c1ccccc1Nc1nc(Nc2ccc(N3CCC(C(N)=O)CC3)cc2OC)ncc1Cl [Example 7-13],5.5,1220,800,
CNC(=O)c1ccccc1Nc1nc(Nc2ccc(N3CCN4CCOC[C@@H]4C3)cc2OC)ncc1Cl [Example 7-16],6.4,420,200,
CNC(=O)c1ccccc1Nc1nc(Nc2ccc(OCC3CCN(C)CC3)cc2OC)ncc1Cl [Example 7-20],2.5,110,> 10000,
CNC(=O)c1ccccc1Nc1nc(Nc2ccc(OCCN3CCN(C)CC3)cc2OC)ncc1Cl [Example 7-21],3.3,460,> 10000,
CNC(=O)c1ccccc1Nc1nc(Nc2cccc3[nH]ccc23)ncc1Cl [Example 7-27],21,220,500,
CNC(=O)c1ccccc1Nc1nc(Nc2cccc3c2ccn3C)ncc1Cl [Example 7-28],34,150,1000,
CNC(=O)c1ccccc1Nc1nc(Nc2ccc(N3CCOCC3)c3c2ccn3C)ncc1Cl [Example 7-29],57,480,2000,
CNC(=O)c1ccccc1Nc1nc(Nc2cc(N3CCOCC3)ccc2OC)ncc1Br [Example 8-1],6.6,330,600,
CNC(=O)c1ccccc1Nc1nc(Nc2ccc(N3CCOCC3)cc2OC)ncc1Br [Example 8-2],2.4,990,500,
CNC(=O)c1ccccc1Nc1nc(Nc2ccc(F)cc2OC)ncc1Br [Example 8-4],8,1100,> 10000,
CCNC(=O)c1ccccc1Nc1nc(Nc2ccc(N3CCN(C)CC3)cc2OC)ncc1Cl [Example 9-2],15,810,500,
CCNC(=O)c1ccccc1Nc1nc(Nc2ccc(N3CCC(N4CCCC4)CC3)cc2OC)ncc1Cl [Example 9-4],13,730,200,
CCNC(=O)c1ccccc1Nc1nc(Nc2cc(N3CCC(N4CCCCC4)CC3)ccc2OC)ncc1Cl [Example 9-7],17,260,> 10000,
CNC(=O)c1c(C)cccc1Nc1nc(Nc2ccc(OC3CCN(C)CC3)cc2OC)ncc1Cl [Example 10-1],39,440,1000,
CNC(=O)c1c(C)cccc1Nc1nc(Nc2ccc(N3CCC(N4CCCCC4)CC3)cc2OC)ncc1Cl [Example 10-2],26,1060,900,
CNC(=O)c1c(C)cccc1Nc1nc(Nc2ccc(N3CCOCC3)cc2OC)ncc1Cl [Example 10-3],23,2400,900,
CNC(=O)c1cc(F)ccc1Nc1nc(Nc2ccc(N3CCOCC3)cc2OC)ncc1Cl [Example 11-1],9,850,700,
CNC(=O)c1cc(F)ccc1Nc1nc(Nc2ccc(N3CCC(N4CCCCC4)CC3)cc2OC)ncc1Cl [Example 11-2],4.1,690,800,
CNC(=O)c1cc(F)ccc1Nc1nc(Nc2cccc3c2ccn3C)ncc1Cl [Example 11-3],26,100,410,
CNC(=O)c1cc(F)ccc1Nc1nc(Nc2ccc(N3CCN(C(C)=O)CC3)cc2OC)ncc1Cl [Example 11-4],4.3,3200,> 10000,
CCNC(=O)c1cc(F)ccc1Nc1nc(Nc2ccc(N3CCOCC3)cc2OC)ncc1Cl [Example 14-5],37,1000,> 10000,
COc1cc(N2CCOCC2)ccc1Nc1ncc(Cl)c(Nc2ccccc2S(=O)(=O)N2CCOCC2)n1 [Example 14-7],7.5,1400,200,
CNC(=O)c1cc(N2CCCC2)ccc1Nc1nc(Nc2ccc(OC3CCN(C)CC3)cc2OC)ncc1Cl [Example 15-2],21,660,> 10000,
CNC(=O)c1cc(N2CCOCC2)ccc1Nc1nc(Nc2ccc(F)cc2OC)ncc1Cl [Example 16-1],44,4000,> 10000,
CNC(=O)c1cc(N2CCN(C)CC2)ccc1Nc1nc(Nc2ccc(F)cc2OC)ncc1Cl [Example 16-2],6,600,> 10000,
CNC(=O)c1cc(OC)ccc1Nc1nc(Nc2ccc(F)cc2OC)ncc1Cl [Example 16-3],21,> 10000,3000,

SMILES,IC50 [1] [nM],"IC50 ([2]; Mus musculus, 4T1) [nM]",IC50 [3] [nM],IC50 [2] [nM]
CNC(=O)c1cc(N2CCC(N3CCCCC3)CC2)ccc1Nc1nc(Nc2ccc(F)cc2OC)ncc1Cl [Example 16-4],9.5,920,> 10000,
COc1cc(F)ccc1Nc1ncc(Cl)c(Nc2ccccc2S(=O)(=O)N2CCOCC2)n1 [Example 16B],11,7000,3000,
COc1cc(F)ccc1Nc1ncc(Cl)c(Nc2ccccc2S(=O)(=O)NCC(F)(F)F)n1 [Example 16C],28,> 10000,900,
CNC(=O)c1cc(N2CCOCC2)ccc1Nc1nc(Nc2ccc(N3CCN(C(C)=O)CC3)cc2OC)ncc1Cl [Example 18-1],19,1290,> 10000,
COc1cc(F)ccc1Nc1ncc(Cl)c(Nc2ccccc2S(=O)(=O)NC(C)C)n1 [Example 19-6],5,700,1000,
COc1cc(OC2CCN(C)CC2)ccc1Nc1ncc(Cl)c(Nc2ccccc2S(=O)(=O)NC(C)C)n1 [Example 19-7],2.1,110,300,
COc1c(Nc2ncc(Cl)c(Nc3ccccc3S(=O)(=O)NC(C)C)n2)ccc(N2CCOCC2)c1F [Example 19-11],38,2000,> 10000,
COc1cc(N2CCC(NC(C)=O)C2)ccc1Nc1ncc(Cl)c(Nc2ccccc2S(=O)(=O)NC(C)C)n1 (stereo not drawn) [Example 19-13],2.5,1100,300,
COc1cc(N2CCC(N3CCCC3)CC2)ccc1Nc1ncc(Cl)c(Nc2ccccc2S(=O)(=O)NC(C)C)n1 [Example 19-15],3.1,360,500,
COc1cc(N2CCC[C@H]2CN2CCCC2)ccc1Nc1ncc(Cl)c(Nc2ccccc2S(=O)(=O)NC(C)C)n1 [Example 19-16],2.3,1100,700,
COc1cc(OCC2CCCCN2C)ccc1Nc1ncc(Cl)c(Nc2ccccc2S(=O)(=O)NC(C)C)n1 (stereo not drawn) [Example 19-17],1,170,> 10000,
CCN(CC)C(=O)C1CCCN(c2ccc(Nc3ncc(Cl)c(Nc4ccccc4S(=O)(=O)NC(C)C)n3)c(OC)c2)C1 (stereo not drawn) [Example 19-18],7,870,130,
COc1c(Nc2ncc(Cl)c(Nc3ccccc3S(=O)(=O)NC(C)C)n2)ccc(OC2CCN(C)CC2)c1F [Example 19-21],84,1710,> 10000,
COc1cc(NCC(C)(C)CO)ccc1Nc1ncc(Cl)c(Nc2ccccc2S(=O)(=O)NC(C)C)n1 [Example 19-22],3.4,510,120,
COc1cc(NC(C)(C)CO)ccc1Nc1ncc(Cl)c(Nc2ccccc2S(=O)(=O)NC(C)C)n1 [Example 19-23],6.4,710,700,
CC(C)NS(=O)(=O)c1ccccc1Nc1nc(Nc2ccc(OCCN3CCOCC3)cc2F)ncc1Cl [Example 19-26],6.1,300,100,
COc1cc(N2CCC(N3CCCCC3)CC2)ccc1Nc1ncc(Cl)c(Nc2ccccc2S(=O)(=O)NC(C)C)n1 [Example 19-27],1.5,400,300,
COc1cc(OCCN2CCN(C)CC2)ccc1Nc1ncc(Cl)c(Nc2ccccc2S(=O)(=O)NC(C)C)n1 [Example 19-30],< 1,100,60,
COc1cc(N2CCN3CCOC[C@H]3C2)ccc1Nc1ncc(Cl)c(Nc2ccccc2S(=O)(=O)NC(C)C)n1 [Example 19-31],1.8,380,400,
COc1cc(NC2CCN(C)CC2)ccc1Nc1ncc(Cl)c(Nc2ccccc2S(=O)(=O)NC(C)C)n1 [Example 19-32],1.4,310,200,
CNS(=O)(=O)c1ccccc1Nc1nc(Nc2ccccc2OC(F)F)ncc1Cl [Example 20-4],23,1900,580,
CNS(=O)(=O)c1ccccc1Nc1nc(Nc2ccc(N3CCC(NC(C)=O)C3)cc2OC)ncc1Cl (stereo not drawn) [Example 20-5],6.8,1460,870,
CNS(=O)(=O)c1ccccc1Nc1nc(Nc2cccc3c2ccn3CCCN2CCN(C)CC2)ncc1Cl [Example 20-9],2,10,300,
CNS(=O)(=O)c1ccccc1Nc1nc(Nc2cccc3c2ccn3CCCN2CCOCC2)ncc1Cl [Example 20-10],2,20,100,
CNS(=O)(=O)c1ccccc1Nc1nc(Nc2cc(N3CCOCC3)ccc2OC)ncc1Cl [Example 20-11],26,400,2000,
CNS(=O)(=O)c1ccccc1Nc1nc(Nc2ccc(N3CCCC(C(N)=O)C3)cc2OC)ncc1Cl (stereo not drawn) [Example 20-15],14,,400,970
